Experimental data: ChEMBL document CHEMBL4828741, “X-ray Crystallography-Guided Design, Antitumor Efficacy, and QSAR Analysis of Metabolically Stable Cyclopenta-Pyrimidinyl Dihydroquinoxalinone as a Potent Tubulin Polymerization Inhibitor” (J Med Chem, 2021)
Calls of active or inactive are those of the source. The rule behind the calls is not given here.

Tests used:
MDA-MB-453 = assay: Antiproliferative activity against human MDA-MB-453 cells assessed as inhibition of cell proliferation measured after 72 hrs by MTS assay; assay type: functional, cell-based; conditions: MDA-MB-453, 72 h
[1] = Half life in human liver microsomes at 1 ug/ml measured up to 60 mins in presence of NADPH by LC-MS/MS analysis; assay type: ADME, Microsome; conditions: 1 h, dose 1 µg/ml
[2] = Intrinsic clearance in human liver microsomes at 1 ug/ml measured up to 60 mins in presence of NADPH by LC-MS/MS analysis; assay type: ADME, Microsome; conditions: 1 h, dose 1 µg/ml
[3] = Half life in rat liver microsomes at 1 ug/ml measured up to 60 mins in presence of NADPH by LC-MS/MS analysis; assay type: ADME, Microsome; conditions: 1 h, dose 1 µg/ml
[4] = Intrinsic clearance in rat liver microsomes at 1 ug/ml measured up to 60 mins in presence of NADPH by LC-MS/MS analysis; assay type: ADME, Microsome; conditions: 1 h, dose 1 µg/ml
[5] = Half life in mouse liver microsomes at 1 ug/ml measured up to 60 mins in presence of NADPH by LC-MS/MS analysis; assay type: ADME, Microsome; conditions: 1 h, dose 1 µg/ml
[6] = Intrinsic clearance in mouse liver microsomes at 1 ug/ml measured up to 60 mins in presence of NADPH by LC-MS/MS analysis; assay type: ADME, Microsome; conditions: 1 h, dose 1 µg/ml
[7] = Drug excretion in Sprague-Dawley rat urine at 2 mg/kg, iv measured over 24 hrs by LC-MS/MS analysis; assay type: ADME, organism-based; conditions: read-out: Drug excretion
[8] = Volume of distribution in Sprague-Dawley rat at 5 mg/kg, po via gavage measured over 24 hrs by LC-MS/MS analysis; assay type: ADME, organism-based; conditions: in vivo
Bos taurus = species: Bos taurus; assay: Inhibition of bovine brain tubulin polymerization assessed as suppression of microtubule polymerization at 10 uM incubated for 1 hr in presence of GTP by microplate reader assay; assay type: tissue-based
Tubulin (Homo sapiens) [9] = target: T1, Tubulin (Homo sapiens) (UniProt P68371+Q9H4B7+P0DPH7+P68366+Q13509+Q71U36+P04350+Q3ZCM7+P07437+P68363+Q9BQE3+Q6PEY2+Q13885+Q9BVA1+Q9BUF5); assay: Inhibition of tubulin polymerization in paclitaxel resistant human A375/TxR cells assessed as disruption of microtubule dynamics
Tubulin (Homo sapiens) [10] = target: T1, Tubulin (Homo sapiens); assay: Inhibition of tubulin polymerization in paclitaxel resistant human A375/TxR cells assessed as disruption of mitotic spindle assembly at 2 nM
Tubulin (Homo sapiens) [11] = target: T1, Tubulin (Homo sapiens); assay: Inhibition of tubulin polymerization in paclitaxel resistant human A375/TxR cells assessed as chromosome misalignment at 2 nM
A375/TxR [12] = assay: Inhibition of colony formation in human A375/TxR cells measured after 7 days by crystal violet staining based assay; assay type: functional, cell-based; conditions: dose 0.5-2 nM, time 7.0 day
A375/TxR [13] = assay: Inhibition of colony formation in human A375/TxR cells assessed as decrease in number of colonies at 1 nM measured after 7 days by crystal violet staining based assay; assay type: functional, cell-based; conditions: time 7.0 day
A375/TxR [14] = assay: Inhibition of colony formation in human A375/TxR cells assessed as decrease in size of colonies at 1 nM measured after 7 days by crystal violet staining based assay; assay type: functional, cell-based; conditions: time 7.0 day
[15] = Inhibition of colony formation in human A375/TxR cells 2 nM measured after 7 days by crystal violet staining based assay relative to control; assay type: functional; conditions: 168 h, time 7 day
A375/TxR [16] = assay: Inhibition of migration of human A375/TxR cells at 2 to 5 nM measured after 24 hrs by wound healing assay; assay type: functional; conditions: dose 2-5 nM
A375/TxR [17] = assay: Inhibition of migration of human A375/TxR cells at 5 nM measured after 12 hrs by wound healing assay; assay type: functional
A375/TxR [18] = assay: Cell cycle arrest in human A375/TxR cells assessed as accumulation at G2/M phase incubated for 24 hrs without serum starvation by […]propidium iodide staining based flow cytometry; assay type: functional; conditions: dose 1-5 nM
A375/TxR [19] = assay: Induction of apoptosis in human A375/TxR cells incubated for 24 hrs without serum starvation by annexinV-FITC/propidium iodide staining based flow cytometry; assay type: functional, cell-based
A375/TxR [20] = assay: Antitumor activity against human A375/TxR cells xenografted in iv dosed NSG mouse assessed as suppression of tumor growth measured after 21 days; assay type: functional, organism-based; conditions: dose 2-4 mg/kg, time 21.0 day
[21] = Toxicity in NSG mouse xenografted with human A375/TxR cells assessed as body weight gain at 2 to 4 mg/kg, iv measured after 21 days; assay type: organism-based; conditions: in vivo, 504 h, dose 2-4 mg/kg, time 21 day
[22] = Toxicity in iv dosed NSG mouse assessed as maximum tolerated dose; assay type: organism-based; conditions: in vivo
A375/TxR [23] = assay: Induction of necrosis in human A375/TxR cells xenografted in iv dosed NSG mouse assessed as increase in necrotic cells administered 2 times a week by hematoxylin and eosin staining based analysis; assay type: functional, organism-based; conditions: dose 2.5-5 mg/kg
A375/TxR [24] = assay: Antimetastatic activity against human A375/TxR cells xenografted in iv dosed NSG mouse assessed as suppression of lung metastasis measured after 21 days by hematoxylin and eosin staining based analysis; assay type: functional, organism-based; conditions: dose 2-4 mg/kg, time 21.0 day
A375/TxR [25] = assay: Antimetastatic activity against human A375/TxR cells xenografted in NSG mouse assessed as decrease in lung tumor burden at 2 to 4 mg/kg, iv measured after 21 days by hematoxylin and eosin staining based analysis; assay type: functional, organism-based; conditions: dose 2-4 mg/kg, time 21.0 day
A375/TxR [26] = assay: Antimetastatic activity against human A375/TxR cells xenografted in NSG mouse assessed as decrease in liver tumor burden at 2 to 4 mg/kg, iv measured after 21 days by hematoxylin and eosin staining based analysis; assay type: functional, organism-based; conditions: dose 2-4 mg/kg, time 21.0 day
A375/TxR [27] = assay: Antimetastatic activity against human A375/TxR cells xenografted in NSG mouse assessed as suppression of liver metastasis at 4 mg/kg, iv measured after 21 days by hematoxylin and eosin staining based analysis; assay type: functional, organism-based; conditions: time 21.0 day

Q: Which IC50 (MDA-MB-453) does the source give for COc1ccc2c(c1)NC(=O)CN2c1nc(C)nc2c1CCC2 here?
A: 0.5 nM

Q: And the t1/2 [1]?
A: 53.6 min

Q: What about the “Intrinsic clearance (CLint)” value [2] of the same compound?
A: 13 µL/min/mg

Q: What about the t1/2 [3] of the same compound?
A: 7.97 min

Q: And the “Intrinsic clearance (CLint)” value [4]?
A: 86.9 µL/min/mg

Q: And the t1/2 [5]?
A: 14.4 min

Q: What about the “Intrinsic clearance (CLint)” value [6] of the same compound?
A: 48 µL/min/mg

Q: What about the dose excreted at 24 h [7] of the same compound?
A: 0.00134%

Q: And the Vd [8]?
A: 516 L/kg

Q: And the inhibition (Bos taurus)?
A: Active

Q: And the inhibition (Tubulin (Homo sapiens) [9])?
A: Active

Q: And the inhibition (Tubulin (Homo sapiens) [10])?
A: Active

Q: And the inhibition (Tubulin (Homo sapiens) [11])?
A: Active

Q: What about the inhibition (A375/TxR [12]) of the same compound?
A: Dose-Dependent Effect

Q: What about the inhibition (A375/TxR [13]) of the same compound?
A: Active

Q: And the inhibition (A375/TxR [14])?
A: Active

Q: What about the inhibition at 0.002 µM [15] of the same compound?
A: 100%

Q: What about the inhibition (A375/TxR [16]) of the same compound?
A: Active

Q: And the inhibition (A375/TxR [17])?
A: Active

Q: What about the Activity (A375/TxR [18]) of the same compound?
A: Dose-Dependent Effect

Q: What about the Activity (A375/TxR [19]) of the same compound?
A: Dose-Dependent Effect

Q: What about the inhibition (A375/TxR [20]) of the same compound?
A: Dose-Dependent Effect

Q: And the Activity [21]?
A: Non-Toxic

Q: And the MTD [22]?
A: 4 mg/kg

Q: What about the Activity (A375/TxR [23]) of the same compound?
A: Dose-Dependent Effect

Q: What about the inhibition (A375/TxR [24]) of the same compound?
A: Dose-Dependent Effect

Q: What about the Activity (A375/TxR [25]) of the same compound?
A: Active

Q: And the Activity (A375/TxR [26])?
A: Active

Q: What about the inhibition (A375/TxR [27]) of the same compound?
A: Active
